Measurements: patent US20100298141A1, “SUBSTITUTED PYRIDINE N-OXIDE HERBICIDES” (E. I. DU PONT DE NEMOURS AND COMPANY, priority 2007, published 2010)

Columns and labels:
[1] = tested on: yellow nutsedge; assay: Test C pre-/postemergence test; format: in vivo, Cyperus esculentus
Source text: (§1) Seeds of plant species selected from blackgrass (Alopecurus myosuroides), downy brome (Bromus tectorum), green foxtail (Setaria viridis), Italian ryegrass (Lolium multiflorum), wheat (Triticum aestivum), wild oat (Avena fatua), catchweed bedstraw (Galium aparine), Russian thistle (Salsola kali), […] (Cynodon dactylon), Surinam grass (Brachiaria decumbens), cocklebur (Xanthium strumarium), corn (Zea mays), crabgrass (Digitaria sanguinalis), woolly cupgrass (Eriochloa villosa), giant foxtail (Setaria faberii), Goosegrass (Eleusin indica), johnsongrass (Sorghum halepense), kochia (Kochia scoparia), lambsquarters (Chenopodium album), morningglory (Ipomoea coccinea), eastern black nightshade (Solanum ptycanthum), yellow nutsedge (Cyperus esculentus), pigweed (Amaranthus retroflexus), common ragweed (Ambrosia elation), soybean (Glycine max), common (oilseed) sunflower (Helianthus annuus), and velvetleaf (Abutilon theophrasti) were planted and treated preemergence with test chemicals formulated in a non-phytotoxic solvent mixture which included a surfactant. At the same time, plants selected from these crop and weed species and also winter barley (Hordeum vulgare), canarygrass (Phalaris minor), and chickweed (Stellaria media) were treated with postemergence applications of some of the test chemicals formulated in the same manner. Plants ranged in height from 2 to 18 cm (1- to 4-leaf stage) for postemergence treatments. […] At time of treatment, test pots were flooded to 3 cm above the soil surface, treated by application of test compounds directly to the paddy water, and then maintained at that water depth for the duration of the test. […] A dash (-) response means no test result.

[2] = tested on: crabgrass; assay: Test A pre-/postemergence greenhouse test; format: in vivo, Digitaria sanguinalis; conditions: for Crabgrass, Large plant response rating: 0 to 100 scale; for Plant response rating, Crabgrass, Large: 0 to 100 scale where 0 is no effect and 100 is complete control
Outline: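 Two application timings were run side by side in the greenhouse. Before emergence, compound went onto the soil surface of loam–sand pots as a directed spray; after emergence, plants at 2–10 cm and the one- to two-leaf stage were treated. Visual injury versus controls was rated at approximately day ten.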

[3] = tested on: common ragweed; assay: Test C pre-/postemergence test; format: in vivo, Ambrosia elation
Source text: as §1

[4] = tested on: kochia; assay: Test C pre-/postemergence test; format: in vivo, Kochia scoparia
Source text: as §1

[5] = 62 g ai/ha, Preemergence, scale 0 to 100
[6] = Preemergence, 31 g ai/ha, scale 0 to 100 (0 no effect, 100 complete control)
[7] = Postemergence, 125 g ai/ha, 0 is no effect, 100 is complete control
[8] = Postemergence, 500 g ai/ha, 0 is no effect, 100 is complete control
[9] = Preemergence, 125 g ai/ha, 0 no effect, 100 complete control
[10] = 125 g ai/ha, preemergence, scale 0 (no effect) to 100 (complete control)
[11] = preemergence, 250 g ai/ha, scale 0 (no effect) to 100 (complete control)
[12] = 31 g ai/ha, Preemergence, scale 0 to 100
[13] = 62 g ai/ha, preemergence, scale 0 (no effect) to 100 (complete control)
[14] = preemergence, 125 g ai/ha, scale 0 (no effect) to 100 (complete control)
[15] = Postemergence, 62 g ai/ha, scale 0 to 100, 0 no effect, 100 complete control
[16] = Postemergence, 125 g ai/ha, scale 0 to 100, 0 no effect, 100 complete control
[17] = Postemergence, 250 g ai/ha, scale 0 to 100, 0 no effect, 100 complete control

| Compound | Nutsedge, Yellow plant response rating [1, 5] | Plant response rating, Nutsedge, Yellow [1, 6] | Crabgrass, Large plant response rating [2, 7] | Crabgrass, Large plant response rating [2, 8] | Crabgrass, Large plant response rating [2, 9] | Plant response rating, Crabgrass, Large ([2]; Preemergence, 500 g ai/ha) | Ragweed plant response rating [3, 5] | Plant response rating, Ragweed [3, 6] | Kochia plant response rating [4, 5] | Nutsedge, Yellow plant response rating [1, 12] | Nutsedge, Yellow plant response rating [1, 13] | Plant response rating (0 to 100), Nutsedge, Yellow ([1]; Preemergence, 250 g ai/ha) | Nutsedge, Yellow plant response rating [1, 14] | Ragweed plant response rating [3, 12] | Ragweed plant response rating [3, 13] | Plant response rating (0 to 100), Ragweed ([3]; Preemergence, 250 g ai/ha) | Ragweed plant response rating [3, 14] | Kochia plant response rating [4, 12] | Kochia plant response rating [4, 13] | Plant response rating (0 to 100), Kochia ([4]; Preemergence, 250 g ai/ha) | also measured |
| --- | --- | --- | --- | --- | --- | --- | --- | --- | --- | --- | --- | --- | --- | --- | --- | --- | --- | --- | --- | --- | --- |
| CC(c1c(C(F)(F)F)nn(C)c1OC(F)F)S(=O)(=O)c1cc(C(C)(C)C)cc[n+]1[O-] (racemic) [Compound 26] | 50 | 0 | 20 | 40 | 90 | 100 | 20 | 0 | 0 |  |  |  |  |  |  |  |  |  |  |  |  |
| Cn1nc(C(F)(F)F)c(C(Cl)S(=O)(=O)c2cccc[n+]2[O-])c1OC(F)F (stereo not shown) [Compound 51] | 40 | 0 |  | 90 | 70 | 90 | 0 | 0 | 100 |  |  |  |  |  |  |  |  |  |  |  | Nutsedge, Yellow plant response rating [1, 10]: 40; Nutsedge, Yellow plant response rating [1, 11]: 100; Plant response rating, Crabgrass, Large ([2]; Postemergence, 125 g ai/ha): 60; Ragweed plant response rating [3, 10]: 30; Ragweed plant response rating [3, 11]: 85; Kochia plant response rating [4, 10]: 100; Plant response rating, Kochia [4, 6]: 65; Kochia plant response rating [4, 11]: 100 |
| Cc1cc[n+]([O-])c(S(=O)(=O)C(C)c2c(C(F)(F)F)nn(C)c2Cl)c1 (racemic) [Compound 14] |  |  | 40 | 70 | 90 | 100 |  |  |  | 40 | 70 | 100 | 98 | 0 | 85 | 100 | 85 | 0 | 0 | 100 | Kochia plant response rating [4, 14]: 100 |
| CC(c1c(C(F)(F)F)nn(C)c1Cl)S(=O)(=O)c1ccc(Cl)c[n+]1[O-] (racemic) [Compound 40] |  |  | 80 | 80 | 60 | 90 |  |  |  |  |  |  |  |  |  |  |  |  |  |  | Plant response rating (0 to 100), Nutsedge, Yellow ([1]; Postemergence, 31 g ai/ha): 0; Plant response rating, Nutsedge, Yellow [1, 15]: 0; Plant response rating, Nutsedge, Yellow [1, 16]: 0; Plant response rating, Nutsedge, Yellow [1, 17]: 0; Plant response rating (0 to 100), Ragweed ([3]; Postemergence, 31 g ai/ha): 0; Plant response rating (0 to 100), Ragweed ([3]; Postemergence, 62 g ai/ha): 0; Plant response rating, Ragweed [3, 16]: 0; Plant response rating, Ragweed [3, 17]: 5; Plant response rating (0 to 100), Kochia ([4]; Postemergence, 31 g ai/ha): 0; Plant response rating, Kochia [4, 15]: 0; Plant response rating, Kochia [4, 16]: 0; Plant response rating, Kochia [4, 17]: 0 |
| CC(c1c(C(F)(F)F)nn(C)c1Cl)S(=O)(=O)c1cccc[n+]1[O-] (stereo not shown) [Compound 10] |  |  | 80 | 90 | 90 | 100 |  |  |  | 60 | 98 | 100 | 98 | 60 | 80 | 100 | 100 | 0 | 40 | 100 | Kochia plant response rating [4, 14]: 80 |
